Measured values published in publication PMC5720837, “Identification of a 4-fluorobenzyl L-valinate amide benzoxaborole (AN11736) as a potential development candidate for the treatment of Animal African Trypanosomiasis (AAT)” (Bioorganic & Medicinal Chemistry Letters, 2018).

Test system: not listed separately
Experiment: In vitro metabolic stability, bovine S9
Type: in vitro ADME
Details: S9 fraction
Protocol: (§1) Selected compounds were screened in both mouse and bovine in vitro metabolic stability assays (mouse S9 and bovine S9), as summarized in Table 2. These two species were chosen because the primary in vivo assays were conducted in mice, and the target animal of this research program is cattle. […] We evaluated the efficacy of selected compounds in two in vivo mouse models of infection, against T. congolense and T. vivax, respectively. Mice were infected with either 1 × 10^5 T. c. parasites or 1 × 10^4 T. v. parasites, and then treated with a test compound via intraperitoneal administration for 1, 2 or 4 consecutive days. The mice were then monitored for the presence of parasitemia for up to 60 days post treatment.[7] We tested in T. c. model first, then followed up with T. v. for interesting compounds. […] We selected compound 5 (AN11736) to progress to exploratory studies to determine the efficacy and safety in a preliminary formulation against induced infections of T. vivax and T. congolense in cattle.[8]

Row | Structure (SMILES) | microsomal CLint [µL/min/mg]
1 | Cc1c(C(=O)N[C@H](C(=O)OCc2ccc(Cl)cc2)C(C)C)ccc2c1B(O)OC2 [Compound 6] | 9.1
2 | Cc1c(C(=O)N[C@H](C(=O)OCc2cccc(C#N)c2)C(C)C)ccc2c1B(O)OC2 [Compound 14] | 2.7
3 | Cc1c(C(=O)N[C@H](C(=O)OCc2ccc(F)c(Cl)c2)C(C)C)ccc2c1B(O)OC2 [Compound 16] | 8.9
4 | Cc1c(C(=O)N[C@H](C(=O)OCc2ccc(F)c(C(F)(F)F)c2)C(C)C)ccc2c1B(O)OC2 [Compound 17] | 10
5 | Cc1c(C(=O)N[C@H](C(=O)OCc2cc(F)c(F)c(F)c2)C(C)C)ccc2c1B(O)OC2 [Compound 18] | 3.1
6 | Cc1c(C(=O)N[C@H](C(=O)OCc2ccc(S(C)(=O)=O)cc2)C(C)C)ccc2c1B(O)OC2 [Compound 19] | 1.3
7 | CC(C)[C@H](NC(=O)c1ccc2c(c1)B(O)OC2)C(=O)OCc1ccc(F)cc1 [Compound 20] | 1.3
8 | CC(C)[C@H](NC(=O)c1ccc2c(c1C(F)F)B(O)OC2)C(=O)OCc1ccc(F)cc1 [Compound 22] | 0.9

Test system: Trypanosoma vivax (T. vivax STIB719/ILRAD 560 strain), bloodstream form
Experiment: Whole cell Alamar Blue assay, T. vivax (48 h ex vivo)
Type: cell-based
Details: Trypanosoma vivax; T. vivax STIB719/ILRAD 560, 48 h ex vivo Alamar Blue assay
Protocol: (§2) Activity of compounds 1–71 against T. congolense and T. vivax was determined using the whole cell assays as described ^6 and their IC50 values are summarized in Table 1.
(§3) [6] Assay methods for determination of T. c. and T. v. […] Culture media consisted of complete HMI-9 (IMDM) with 20% bovine serum. To ensure log growth phase, trypanosomes were sub-cultured at appropriate dilutions every 2–3 days. Bloodstream form Trypanosoma vivax (T. vivax) cannot be cultured axenically, therefore trypanosomes (T. vivax STIB719/ILRAD 560 strain) were harvested from a highly parasitemia mouse via cardiac puncture and used directly in the ex vivo drug sensitivity assay on the same day. […] Parasite starting concentrations of 2 × 10^5 (T. c.) and 4 × 10^5 (T. v.) were calculated respectively, using a cell analyzer system or haemo-cytometer, followed by quantification at 536 nm excitation and 588 nm emission wavelengths using a […] reader. Test compounds were prepared as 10 mg/mL DMSO stocks for each assay run. Compounds were assayed in at least three separate, independent test runs and an 11-point dilution curve was used to determine the IC50 values. Data points were averaged to generate sigmoidal dose-response curves and IC50 values were determined using Softmax Pro 5.2 software.

Row | Structure (SMILES) | IC50 [nM]
9 | C[C@H](NC(=O)c1ccc2c(c1)B(O)OC2)C(=O)OCc1ccccc1 [Compound 1] | 69
10 | CC(C)[C@H](NC(=O)c1ccc2c(c1)B(O)OC2(C)C)C(=O)OCc1ccccc1 [Compound 3] | 9190
11 | Cc1c(C(=O)N[C@H](C(=O)OCc2ccc(Cl)cc2)C(C)C)ccc2c1B(O)OC2 [Compound 6] | 2.9
12 | Cc1c(C(=O)N[C@H](C(=O)OCc2cccc(C#N)c2)C(C)C)ccc2c1B(O)OC2 [Compound 14] | 0.06
13 | Cc1c(C(=O)N[C@H](C(=O)OCc2ccc(F)c(Cl)c2)C(C)C)ccc2c1B(O)OC2 [Compound 16] | 0.07
14 | Cc1c(C(=O)N[C@H](C(=O)OCc2ccc(F)c(C(F)(F)F)c2)C(C)C)ccc2c1B(O)OC2 [Compound 17] | 0.04
15 | Cc1c(C(=O)N[C@H](C(=O)OCc2cc(F)c(F)c(F)c2)C(C)C)ccc2c1B(O)OC2 [Compound 18] | 0.06
16 | Cc1c(C(=O)N[C@H](C(=O)OCc2ccc(S(C)(=O)=O)cc2)C(C)C)ccc2c1B(O)OC2 [Compound 19] | 0.44
17 | CC(C)[C@H](NC(=O)c1ccc2c(c1)B(O)OC2)C(=O)OCc1ccc(F)cc1 [Compound 20] | 1
18 | CC(C)[C@H](NC(=O)c1ccc2c(c1C(F)F)B(O)OC2)C(=O)OCc1ccc(F)cc1 [Compound 22] | 0.92

Test system: Trypanosoma congolense (T. congolense IL-3000 strain), bloodstream form
Experiment: Whole cell Alamar Blue assay, T. congolense (72 h in vitro)
Type: cell-based
Details: T. congolense IL-3000, 72 h in vitro Alamar Blue assay
Protocol: as §2, §3

Row | Structure (SMILES) | IC50 [nM]
19 | C[C@H](NC(=O)c1ccc2c(c1)B(O)OC2)C(=O)OCc1ccccc1 [Compound 1] | 4.9

Same assay, conditions: Trypanosoma congolense, 72 h, T. congolense IL-3000, 72 h in vitro Alamar Blue assay

Row | Structure (SMILES) | IC50 [nM]
20 | C[C@H](NC(=O)c1ccc2c(c1)B(O)OC2)C(=O)OCc1ccccc1 [Compound 1] | 5
21 | CC(C)[C@H](NC(=O)c1ccc2c(c1)B(O)OC2(C)C)C(=O)OCc1ccccc1 [Compound 3] | 2580
22 | Cc1c(C(=O)N[C@H](C(=O)OCc2ccc(Cl)cc2)C(C)C)ccc2c1B(O)OC2 [Compound 6] | 0.47
23 | Cc1c(C(=O)N[C@H](C(=O)OCc2cccc(C#N)c2)C(C)C)ccc2c1B(O)OC2 [Compound 14] | 0.1
24 | Cc1c(C(=O)N[C@H](C(=O)OCc2ccc(F)c(Cl)c2)C(C)C)ccc2c1B(O)OC2 [Compound 16] | 0.08
25 | Cc1c(C(=O)N[C@H](C(=O)OCc2ccc(F)c(C(F)(F)F)c2)C(C)C)ccc2c1B(O)OC2 [Compound 17] | 0.21
26 | Cc1c(C(=O)N[C@H](C(=O)OCc2cc(F)c(F)c(F)c2)C(C)C)ccc2c1B(O)OC2 [Compound 18] | 0.2
27 | Cc1c(C(=O)N[C@H](C(=O)OCc2ccc(S(C)(=O)=O)cc2)C(C)C)ccc2c1B(O)OC2 [Compound 19] | 0.61
28 | CC(C)[C@H](NC(=O)c1ccc2c(c1)B(O)OC2)C(=O)OCc1ccc(F)cc1 [Compound 20] | 3
29 | CC(C)[C@H](NC(=O)c1ccc2c(c1C(F)F)B(O)OC2)C(=O)OCc1ccc(F)cc1 [Compound 22] | 0.67

Test system: T. c. parasites (STIB736/IL1180 strain)
Experiment: In vivo mouse model of T. congolense infection
Parameters: species or system NMRI female mice
Details: 1 × 10 mg/kg, intraperitoneal, monitored 60 days post treatment
Protocol: as §1
[7] Methods for testing compound efficacy in mouse models: In vivo mouse efficacy studies were performed at the Swiss TPH, using established mouse models of infection for T. c. and T. v. NMRI female mice were independently infected either with 1 × 10^5T. c. parasites/mouse (STIB736/IL1180 strain) or 1 × 10^4T. v. parasites/mouse (STIB719/ILRAD560 strain) using an intraperitoneal route. Parasitemia was allowed to develop over 7 days (T. c.) or 3 days (T. v.), respectively, before treatment was administered. Compounds were administered via intraperitoneal injection in 10% DMSO/water. Four mice were used per treatment group. Mice were monitored for the presence of trypanosomes, via tail blood examination microscopically with twice-per-week parasitemia checks for 60 days post treatment. Parasitemia was graded on a scale of 0–3, with 0 indicating no trypanosomes seen in 20 fields of view, 1 indicating the presence of 1–5 trypanosomes per field, 2 indicating the presence of 6–20 trypanosomes per field and 3 indicating greater than 20 trypanosomes per field. Mice scoring 2 or 3 were immediately euthanized. After 60 days, aparasitemic mice were considered cured. Untreated control mice survive on average for 10 and 6 days post infection for T. c. and T. v., respectively. All in vivo mouse experiments were conducted in accordance with the strict guidelines set out by the Swiss Federal Veterinary Office, under the ethical approval of license number #2813.

Row | Structure (SMILES) | Efficacy in mouse model T. c., n/m (mice survived / total mice in group)
30 | Cc1c(C(=O)N[C@H](C(=O)OCc2ccc(Cl)cc2)C(C)C)ccc2c1B(O)OC2 [Compound 6] | 0/4 (1 × 10)
31 | Cc1c(C(=O)N[C@H](C(=O)OCc2cccc(C#N)c2)C(C)C)ccc2c1B(O)OC2 [Compound 14] | 0/4 (1 × 10)
32 | Cc1c(C(=O)N[C@H](C(=O)OCc2ccc(F)c(Cl)c2)C(C)C)ccc2c1B(O)OC2 [Compound 16] | 1/4
33 | Cc1c(C(=O)N[C@H](C(=O)OCc2ccc(F)c(C(F)(F)F)c2)C(C)C)ccc2c1B(O)OC2 [Compound 17] | 0/4 (1 × 10)
34 | Cc1c(C(=O)N[C@H](C(=O)OCc2cc(F)c(F)c(F)c2)C(C)C)ccc2c1B(O)OC2 [Compound 18] | 1/4 (1 × 10)
35 | Cc1c(C(=O)N[C@H](C(=O)OCc2ccc(S(C)(=O)=O)cc2)C(C)C)ccc2c1B(O)OC2 [Compound 19] | 0/4 (1 × 10)
36 | CC(C)[C@H](NC(=O)c1ccc2c(c1C(F)F)B(O)OC2)C(=O)OCc1ccc(F)cc1 [Compound 22] | 0/4 (1 × 10)

Same assay, conditions: 2 × 10 mg/kg, intraperitoneal, monitored 60 days post treatment

Row | Structure (SMILES) | Efficacy in mouse model T. c., n/m (mice survived / total mice in group)
37 | Cc1c(C(=O)N[C@H](C(=O)OCc2ccc(F)c(Cl)c2)C(C)C)ccc2c1B(O)OC2 [Compound 16] | 4/4

Same assay, conditions: 4 × 10 mg/kg, intraperitoneal, monitored 60 days post treatment

Row | Structure (SMILES) | Efficacy in mouse model T. c., n/m (mice survived / total mice in group)
38 | CC(C)[C@H](NC(=O)c1ccc2c(c1)B(O)OC2)C(=O)OCc1ccc(F)cc1 [Compound 20] | 0/5 (4 × 10)

Test system: not listed separately
Experiment: In vitro metabolic stability, mouse S9
Type: in vitro ADME
Details: S9 fraction
Protocol: as §1

Row | Structure (SMILES) | microsomal CLint [µL/min/mg]
39 | Cc1c(C(=O)N[C@H](C(=O)OCc2ccc(Cl)cc2)C(C)C)ccc2c1B(O)OC2 [Compound 6] | 17
40 | Cc1c(C(=O)N[C@H](C(=O)OCc2cccc(C#N)c2)C(C)C)ccc2c1B(O)OC2 [Compound 14] | 9.1
41 | Cc1c(C(=O)N[C@H](C(=O)OCc2ccc(F)c(Cl)c2)C(C)C)ccc2c1B(O)OC2 [Compound 16] | 15
42 | Cc1c(C(=O)N[C@H](C(=O)OCc2ccc(F)c(C(F)(F)F)c2)C(C)C)ccc2c1B(O)OC2 [Compound 17] | 14
43 | Cc1c(C(=O)N[C@H](C(=O)OCc2cc(F)c(F)c(F)c2)C(C)C)ccc2c1B(O)OC2 [Compound 18] | 9.7
44 | Cc1c(C(=O)N[C@H](C(=O)OCc2ccc(S(C)(=O)=O)cc2)C(C)C)ccc2c1B(O)OC2 [Compound 19] | 2.6
45 | CC(C)[C@H](NC(=O)c1ccc2c(c1)B(O)OC2)C(=O)OCc1ccc(F)cc1 [Compound 20] | 1.5
46 | CC(C)[C@H](NC(=O)c1ccc2c(c1C(F)F)B(O)OC2)C(=O)OCc1ccc(F)cc1 [Compound 22] | 1.4
